{"source": "paper PMC3514216", "about": "“SRC Homology 2 Domain Binding Sites in Insulin, IGF-1 and FGF receptor mediated signaling networks reveal an extensive potential interactome” (Cell Communication and Signaling : CCS, 2012)", "assay_type_in_all_cases": "binding", "key": {"[1]": {"target": "T1, Shc1 SH2 domain (Homo sapiens, UniProt P29353)", "T1 sequence (P29353 488-579 limits assumed)": "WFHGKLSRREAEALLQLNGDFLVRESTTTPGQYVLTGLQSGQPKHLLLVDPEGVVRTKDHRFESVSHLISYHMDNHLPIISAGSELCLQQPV", "test": "SPOT peptide array", "details": "GST-SH2 0.25 μM, membrane-bound peptide, 1 mM DTT, LiCor read-out", "from_the_text": "(§1) The use of addressable peptide arrays is a reproducible and semi-quantitative approach that has been extensively validated for studying protein interactions with peptide ligands. To investigate connections between SH2 domain proteins and their putative phosphorylated docking sites on cell surface receptors, we developed addressable arrays consisting of 192 phosphotyrosine peptides. This peptide set was assembled using 71 phosphotyrosine peptide motifs corresponding to all of the cytoplasmic tyrosine residues within the FGF receptors (FGFR1-4), insulin receptor (InsR) and IGF-1 receptor (IGF-1R) (Figure 1A). Activation of these receptors results in the phosphorylation of associated scaffold proteins, and so 75 phosphotyrosine peptides corresponding to a comprehensive list of tyrosine residues within insulin receptor substrates (IRS-1 and IRS-2) and fibroblast receptor substrates (FRS-2 and FRS-3) were included. In addition, 33 phosphotyrosine peptides were incorporated from the downstream signaling proteins PLC-γ1, p130Cas (BCAR1) and p62DOK1. […] These control peptides provide a reference and establish the empirical cut-off for designated binding interactions (Table 1). No discrimination was made against peptides on the basis of reported phosphorylation state in order to examine a diverse and unbiased set of motifs. The resulting set of 192 phosphotyrosine peptides and their corresponding position in the proteins of origin is noted in Additional file 1: Table S1. Addressable arrays were synthesized as membrane-bound 11-mer peptides using the SPOT synthesis technique. While the majority of SH2 domains recognize residues C-terminal to the phosphotyrosine in their cognate peptide ligands, additional contacts between SH2 domains and residues N-terminal to the phosphotyrosine are observed for the SH2 domain of Sh2d1a (SAP) and cannot be ruled out in other cases. Peptides were synthesized with six flanking residues C-terminal to the phosphotyrosine and four residues N-terminal to the phosphotyrosine.\n(§2) SH2 domains were arrayed as GST fusion proteins and detected using anti-GST primary antibodies and near-infrared labeled secondary antibodies. In an effort to present a dataset with minimal false positives, we chose an empirical cutoff based on the array average across all peptide spots to classify interactions (Figure 1A). In cases where the intensity of the signal for an individual SH2-domain binding event exceeded the mean intensity of all the peptides on the membrane by three-fold were scored as “array positives” [22]. Non-binding was judged in cases where the intensity of a spot was less than the mean intensity of all spots on the membrane and these were scored as “array negatives”. Peptides with signal intensities between 1X and 3X mean were scored as “indeterminate” and ascribed as neither array positive binding interactions nor array-negative non-binders. […] This signature may be indicative of promiscuity differences between phosphopeptides or there may be a subset of peptides which interact in a nonspecific fashion with either the GST fusion tag or one of the antibodies used for detection, resulting in false positives. Consistent with our goal of reducing the errors associated with identifying false-positives, we probed three separate arrays with three separate preps of the GST fusion tag alone. Potentially non-specificly interacting peptides (so-called ‘sticky’ peptides) were identified as any that bound to GST with above mean intensity in two out of three separate trials. This approach identifies any peptides which interact with GST or either of the recognition antibodies, a known confounding factor for downstream analysis. This conservative approach allows us to score many significant peptides as ‘binders’ which may have been indeterminate before when incorporating the ‘sticky’ peptides into the array average. […]"}, "[2]": {"target": "Sh2d1b SH2 domain (Homo sapiens, UniProt O14796)", "sequence (O14796 5-101 limits assumed)": "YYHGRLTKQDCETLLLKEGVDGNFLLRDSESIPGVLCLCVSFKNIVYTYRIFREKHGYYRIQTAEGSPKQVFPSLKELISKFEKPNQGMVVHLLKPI", "test": "SPOT peptide array", "details": "GST-SH2 0.25 μM, membrane-bound peptide, 1 mM DTT, LiCor read-out", "from_the_text": "as §1, §2"}, "[3]": {"target": "T2, Abl2 SH2 domain (Homo sapiens, UniProt P42684)", "T2 sequence (P42684 173-263 limits assumed)": "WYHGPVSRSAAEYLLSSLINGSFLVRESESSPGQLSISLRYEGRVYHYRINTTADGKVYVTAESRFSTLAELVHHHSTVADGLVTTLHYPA", "test": "SPOT peptide array", "details": "spot intensity as factor of array mean; GST-SH2 0.25 μM", "from_the_text": "as §1, §2"}, "[4]": {"target": "Crk SH2 domain (Homo sapiens, UniProt P46108)", "sequence (P46108 13-118 limits assumed)": "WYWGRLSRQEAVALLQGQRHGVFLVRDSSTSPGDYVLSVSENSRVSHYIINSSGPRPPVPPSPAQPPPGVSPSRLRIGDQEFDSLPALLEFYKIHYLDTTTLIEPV", "test": "SPOT peptide array", "details": "spot intensity as factor of array mean; GST-SH2 0.25 μM", "from_the_text": "as §1, §2"}, "[5]": {"target": "CrkL SH2 domain (Homo sapiens, UniProt P46109)", "sequence (P46109 14-102 limits assumed)": "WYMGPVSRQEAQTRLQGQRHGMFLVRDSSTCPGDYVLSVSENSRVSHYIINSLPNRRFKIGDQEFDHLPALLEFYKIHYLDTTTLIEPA", "test": "SPOT peptide array", "details": "spot intensity as factor of array mean; GST-SH2 0.25 μM", "from_the_text": "as §1, §2"}, "[6]": {"system": "Ptpn11 SH2 domain (N or C not specified)", "test": "SPOT peptide array", "details": "GST-SH2 0.25 μM, membrane-bound peptide, 1 mM DTT, LiCor read-out", "from_the_text": "as §1, §2"}, "[7]": {"target": "T3, Ptpn11_N SH2 domain (Homo sapiens, UniProt Q06124)", "T3 sequence (Q06124 6-102 limits assumed)": "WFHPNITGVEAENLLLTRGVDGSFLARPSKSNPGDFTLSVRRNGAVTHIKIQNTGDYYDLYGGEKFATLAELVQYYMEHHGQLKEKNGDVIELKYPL", "test": "SPOT peptide array", "details": "spot intensity as factor of array mean; GST-SH2 0.25 μM", "from_the_text": "as §1, §2"}, "[8]": {"system": "Ptpn11_C SH2 domain", "test": "SPOT peptide array", "details": "spot intensity as factor of array mean; GST-SH2 0.25 μM", "from_the_text": "as §1, §2"}, "[9]": {"system": "panel of 50 SH2 domains", "test": "SPOT peptide array probed with each of 50 GST-SH2 domains", "details": "SH2 domains with intensity >3X array mean; GST-SH2 0.25 μM, 1 mM DTT", "summary_of_the_method": "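Each GST-fused SH2 domain was overlaid on 192 membrane-synthesized pTyr peptides (11-mers, 4 N-terminal and 6 C-terminal flanking residues) and read with anti-GST and near-infrared secondary antibodies. Binding called relative to membrane mean intensity (>3× positive, <1× negative); GST-only probes defined nonspecific peptides.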"}, "[10]": {"target": "Sh2b SH2 domain (Homo sapiens, UniProt Q9NRF2)", "test": "SPOT peptide array", "details": "GST-SH2 0.25 μM", "from_the_text": "as §1, §2"}}}
{"substance": "HDGLpYQGLSTA [11-mer phosphotyrosine control peptide, CD150 (Y142)]", "values": [{"measurement": "Array positive", "setting": "[1]", "value": "No (Peptide spots with average intensity values between 1X-3X the array mean were defined as ‘indeterminate’. Those with intensities below 1X mean were defined as array negative)"}]}
{"substance": "SLTIpYAQVQKA [11-mer phosphotyrosine control peptide, SLAM (Y280)]", "values": [{"measurement": "Array positive", "setting": "[2]", "value": "Yes (Array-positive binding was ascribed to interactions with intensities greater than three times the array mean)"}]}
{"substance": "SSKDLVSCApYQVARGMED", "values": [{"measurement": "Peptide array intensity (X mean)", "setting": "[3]", "value": "<2", "unit": "x X Mean"}, {"measurement": "Peptide array intensity (X mean)", "setting": "[4]", "value": "<2", "unit": "x X Mean"}, {"measurement": "Peptide array intensity (X mean)", "setting": "[5]", "value": "<2", "unit": "x X Mean"}]}
{"substance": "STVEpYSTVVHS [11-mer phosphotyrosine control peptide, gp130/IL-6 Receptor (Y759), reference compound]", "values": [{"measurement": "Array positive", "setting": "[6]", "value": "No (Peptide spots with average intensity values between 1X-3X the array mean were defined as ‘indeterminate’. Those with intensities below 1X mean were defined as array negative)"}, {"measurement": "Peptide array intensity (X mean)", "setting": "[7]", "value": 1.33, "unit": "X Mean"}, {"measurement": "Peptide array intensity (X mean)", "setting": "[8]", "value": 2.8, "unit": "X Mean"}, {"measurement": "Other SH2 domains bound (additional array-positive SH2 domains)", "setting": "[9]", "value": "PTPN11_N is 1.33X Mean, PTPN11_C is 2.8X Mean Brdg1, Brk, Sh2d1b"}]}
{"substance": "THDLYMIMREA [11-mer peptide, FGFR3 (Y724)]", "values": [{"measurement": "Array positive", "setting": "[10]; membrane-bound peptide, 1 mM DTT, LiCor read-out", "value": "No (Peptide spots with average intensity values between 1X-3X the array mean were defined as ‘indeterminate’. Those with intensities below 1X mean were defined as array negative)"}, {"measurement": "Peptide array intensity (X mean)", "setting": "[10]; spot intensity as factor of array mean", "value": 0.44, "unit": "X Mean"}]}
